From patent US10292412B2, “High solubility natural sweetener compositions” (KRAFT FOODS GLOBAL BRANDS LLC, priority 2012, dated 2019)
Several values for one entry are separate records, joined by “and”; a condition that tells them apart may be missing. Equal entries are not always repeated.

Key:
Format in all cases: physicochemical
[1] = Example 2: solubility of rebaudioside A in liquid concentrates with varying water, acid and alcohol; set-up: scale not given here
Protocol: Liquid concentrate formulations were prepared including varying levels of rebaudioside A, water, alcohol, and acid. The solubility was measured at various concentrations of each of the components and the results are included in the tables below: […]

[2] = Example 3: solubility (1-5 scale) after seven days; ambient water, heated water or 0.45 micron filtered rebaudioside A solutions with citric acid and ethanol
Protocol: Several solutions including rebaudioside A were prepared to test the effect of heating and filtering on the solubility of rebaudioside A. The formulations are as follows: […]
The solutions for the ambient water experimentation were prepared by dissolving rebaudioside A in ambient water (about 68° F. to about 77° F.) using a magnetic stir bar. Citric acid and ethanol were then dissolved into the solution using a magnetic stir bar.
The solutions for the heated water experimentation were prepared by heating water to 150° F. Rebaudioside A was added and dissolved using a magnetic stir bar. The solution was removed from the heat and citric acid was added and dissolved by a magnetic stir bar. After the solution cooled to 100° F. or below, ethanol was added and stirred into the solution by a magnetic stirrer.
The solutions for the filtered rebaudioside A experimentation were prepared by first dissolving rebaudioside A in ambient water (about 68° F. to about 77° F.) using a magnetic stir bar. The solution was then passed through a 0.45 micron filter. Citric acid and ethanol were dissolved into the solution using a magnetic stir bar.
Solubility was measured according to the 1-5 scale in the table above after seven days. […]

[3] = Example 6: solubility rating of rebaudioside A liquid concentrate after 33 months at 35° F.; details: water 62.27%, Citric Acid 16.96%, Potassium Citrate 1.4%, Flavor (80%-90% Ethanol) 11%, Reb A 4.4%, Malic Acid 3.89%, Shade 0.08%
Protocol: A liquid concentrate sample was prepared using rebaudioside A from Cargill. Samples were measured for solubility as defined in sections 46-47. The samples were rated as 3 on the scale after 33 months at 35° F. The formula is included in the table below: […]

Structure (SMILES): C=C1C[C@@]23CC[C@H]4[C@@](C)(CCC[C@@]4(C)C(=O)O[C@@H]4O[C@H](CO)[C@@H](O)[C@H](O)[C@H]4O)[C@@H]2CC[C@]1(O[C@@H]1O[C@H](CO)[C@@H](O)[C@H](O[C@@H]2O[C@H](CO)[C@@H](O)[C@H](O)[C@H]2O)[C@H]1O[C@@H]1O[C@H](CO)[C@@H](O)[C@H](O)[C@H]1O)C3 [Reb A, rebaudioside A]
- Response 1 Solubility ([1]; Water/Phosphoric Acid/Ethanol (190 Proof)/RebA 92.44/0.00/0.00/7.56 ml): 5
- Response 1 Solubility ([1]; Water/Phosphoric Acid/Ethanol (190 Proof)/RebA 99.40/0.00/0.00/0.60 ml): 3 and 2
- Response 1 Solubility ([1]; Water/Tartaric Acid/Ethanol (190 Proof)/RebA 18.70369333/21.97/51.77/7.56 ml): 1
- Response 1 Solubility ([1]; Water/Tartaric Acid/Ethanol (190 Proof)/RebA 19.2674479/6.63/71.76/2.34 ml): 2
- Response 1 Solubility ([1]; Water/Tartaric Acid/Ethanol (190 Proof)/RebA 19.2674479/14.30/62.35/4.08 ml): 2
- Response 1 Solubility ([1]; Water/Tartaric Acid/Ethanol (190 Proof)/RebA 30.1664432/27.48/41.75/0.60 ml): 1
- Response 1 Solubility ([1]; Water/Tartaric Acid/Ethanol (190 Proof)/RebA 30.81333333/4.93/56.70/7.56 ml): 2
- Response 1 Solubility ([1]; Water/Tartaric Acid/Ethanol (190 Proof)/RebA 33.13173333/0.00/66.26/0.60 ml): 1
- Response 1 Solubility ([1]; Water/Tartaric Acid/Ethanol (190 Proof)/RebA 33.2952179/19.41/41.47/5.82 ml): 1
- Response 1 Solubility ([1]; Water/Tartaric Acid/Ethanol (190 Proof)/RebA 37.40738667/29.15/25.88/7.56 ml): 1
- Response 1 Solubility ([1]; Water/Tartaric Acid/Ethanol (190 Proof)/RebA 39.9320216/13.74/45.72/0.60 ml): 1
- Response 1 Solubility ([1]; Water/Tartaric Acid/Ethanol (190 Proof)/RebA 47.9588/0.00/47.96/4.08 ml): 1
- Response 1 Solubility ([1]; Water/Tartaric Acid/Ethanol (190 Proof)/RebA 49.4338911/26.16/22.06/2.34 ml): 1
- Response 1 Solubility ([1]; Water/Tartaric Acid/Ethanol (190 Proof)/RebA 49.51702667/12.11/30.81/7.56 ml): 1
- Response 1 Solubility ([1]; Water/Tartaric Acid/Ethanol (190 Proof)/RebA 57.8023437/16.05/22.06/4.08 ml): 1
- Response 1 Solubility ([1]; Water/Tartaric Acid/Ethanol (190 Proof)/RebA 60.3328864/39.06/0.00/0.60 ml): 1
- Response 1 Solubility ([1]; Water/Tartaric Acid/Ethanol (190 Proof)/RebA 61.92/9.00/25.00/4.08 ml): 2
- Response 1 Solubility ([1]; Water/Tartaric Acid/Ethanol (190 Proof)/RebA 65.18/8.00/21.00/5.82 ml): 3
- Response 1 Solubility ([1]; Water/Tartaric Acid/Ethanol (190 Proof)/RebA 65.44/8.00/19.00/7.56 ml): 4
- Response 1 Solubility ([1]; Water/Tartaric Acid/Ethanol (190 Proof)/RebA 65.4874479/6.63/22.06/5.82 ml): 4
- Response 1 Solubility ([1]; Water/Tartaric Acid/Ethanol (190 Proof)/RebA 66.26346667/0.00/33.13/0.60 ml): 1
- Response 1 Solubility ([1]; Water/Tartaric Acid/Ethanol (190 Proof)/RebA 68.22072/24.22/0.00/7.56 ml): 2
- Response 1 Solubility ([1]; Water/Tartaric Acid/Ethanol (190 Proof)/RebA 71.18/16.00/7.00/5.82 ml): 2
- Response 1 Solubility ([1]; Water/Tartaric Acid/Ethanol (190 Proof)/RebA 75.92/3.00/17.00/4.08 ml): 4
- Response 1 Solubility ([1]; Water/Tartaric Acid/Ethanol (190 Proof)/RebA 75.92/12.00/8.00/4.08 ml): 3
- Response 1 Solubility ([1]; Water/Tartaric Acid/Ethanol (190 Proof)/RebA 76.18/11.00/7.00/5.82 ml): 4
- Response 1 Solubility ([1]; Water/Tartaric Acid/Ethanol (190 Proof)/RebA 77.0697916/18.85/0.00/4.08 ml): 2
- Response 1 Solubility ([1]; Water/Tartaric Acid/Ethanol (190 Proof)/RebA 78.92/5.00/12.00/4.08 ml): 4
- Response 1 Solubility ([1]; Water/Tartaric Acid/Ethanol (190 Proof)/RebA 84.92/3.00/8.00/4.08 ml): 5
- Response 1 Solubility ([1]; Water/Tartaric Acid/Ethanol (190 Proof)/RebA 86.3744288/13.02/0.00/0.60 ml): 1
- Response 1 Solubility ([1]; Water/Tartaric Acid/Ethanol (190 Proof)/RebA 92.44/0.00/0.00/7.56 ml): 5
- Response 1 Solubility ([1]; Water/Tartaric Acid/Ethanol (190 Proof)/RebA 99.3952/0.00/0.00/0.60 ml): 2
- Response 1 Solubility ([1]; Water/acid/alcohol/RebA 96.67/0.00/0.00/3.33 ml): 5
- Response 1 Solubility ([1]; Water/acid/alcohol/RebA 97.01/0.00/0.00/2.99 ml): 5
- Response 1 Solubility ([1]; Water/acid/alcohol/RebA 97.34/0.00/0.00/2.66 ml): 5
- Response 1 Solubility ([1]; Water/acid/alcohol/RebA 97.67/0.00/0.00/2.33 ml): 5
- Response 1 Solubility ([1]; Water/acid/alcohol/RebA 98.00/0.00/0.00/2.00 ml): 5
- Response 1 Solubility ([1]; Water/acid/alcohol/RebA 98.34/0.00/0.00/1.66 ml): 5
- Response 1 Solubility ([1]; Water/acid/alcohol/RebA 98.67/0.00/0.00/1.33 ml): 5
- Response 1 Solubility ([1]; Water/acid/alcohol/RebA 99.00/0.00/0.00/1.00 ml): 5
- Response 1 Solubility ([1]; Water/acid/alcohol/RebA 99.33/0.00/0.00/0.67 ml): 2
- Response 1 Solubility ([1]; Water/acid/alcohol/RebA 99.67/0.00/0.00/0.33 ml): 1
- solubility after seven days ([2]; ambient water, 5 wt % rebaudioside A, all ethanol/acid conditions tested except high ethanol (30% by volume) and high acid (30% by weight)): crystallized
- solubility after seven days ([2]; ambient water, 10 wt % rebaudioside A, high ethanol (30% by volume) and high acid (30% by weight)): failed
- solubility after seven days ([2]; ambient water, filtered at 0.45 micron, 5 wt % rebaudioside A, all points except low acid/low ethanol): passed
- solubility after seven days ([2]; heated water (150° F.), 5 wt % rebaudioside A, all ethanol/acid points): passed
- solubility after seven days ([2]; heated water (150° F.), 10 wt % rebaudioside A, all ethanol/acid points): passed
- solubility after seven days ([2]; heated water (150° F.), 15 wt % rebaudioside A, low ethanol (10%)/low acid (10%)): failed
- solubility after seven days ([2]; heated water (150° F.), 15 wt % rebaudioside A, medium ethanol (20%)/low acid): failed
- solubility rating on the scale [3]: 3 (a solubility of 3 may be represented by 1% to 5% v/v of pellet)
